Test results reported in patent publication US8076310B2, “Phosphonate nucleosides useful as active ingredients in pharmaceutical compositions for the treatment of viral infections, and intermediates for their production” (K.U.Leuven Research & Development, priority 2004, dated 2011).

Target: T1, HIV reverse transcriptase (Human immunodeficiency virus type 1 group M subtype B, UniProt P04585)
T1 construct: 0.025 U/μL HIV reverse transcriptase
Assay: Steady-state kinetics of nucleotide incorporation in a DNA hybrid by HIV reverse transcriptase
Type: biochemical
Settings: 0.025 U/μL HIV reverse transcriptase, 250 nM primer/template, average of three determinations
Procedure: Determination of Km and Kcat values for the incorporation of dATP and PMDTApp in a DNA hybrid was carried out under steady-state conditions as described by Creighton et al. in Methods in Enzymology (1995) 262:232-256. […] Results given below are the average of three independent determinations. The reaction mixture contained 250 nM primer/template complex 0.025 U/μL HIV reverse transcriptase, and the triphosphate nucleotides to be incorporated (dATP and PMDTApp, respectively). The template sequence and the primer sequence used in this experiment are shown below. The reaction was quenched after 1, 2 and 3 minutes by adding a double volume of stop solution (90% formamide, 0.05% bromophenol blue, 0.05% xylene cyanol and 50 mM EDTA). Samples were analyzed by gel electrophoresis on a 16% polyacrylamide ureum gel in TBE buffer (89 mM Tris-borate, 2 mM EDTA buffer, pH 8.3) after heating the samples for 5 minutes at 70° C. Products were visualised by phosphorimaging. The amount of radioactivity in the bands corresponding to the products of the enzymatic reactions was determined using the Optiquant Image Analysis Software (Packard). Rate profiles were determined using GraphPad Prism® software.

Nc1ncnc2c1ncn2[C@H]1C[C@H](O)[C@@H](COP(=O)(O)OP(=O)(O)OP(=O)(O)O)O1 [dATP, deoxy-adenosine triphosphate]
Kcat: 0.66 min − 1
Km: 0.1 µM
